Results reported in patent US10655153B2, “Chemoenzymatic synthesis of peptide beta-lactones and beta-hydroxy acids” (Washington University, priority 2017, dated 2020).
Entries after “also recorded” stand apart in the source; their conditions may differ.

Tests used:
E. coli ATCC 25922 [1] = experiment: Antibiotic susceptibility testing, growth curves by OD600; format: cell-based; conditions: for effect on E. coli growth (OD600): 150 μM, M9 minimal media, compared to buffer control
Procedure: (§1) Bacterial strains (E. coli 29522 and E. coli X580) were grown from frozen glycerol stocks in LB media overnight at 37° C. with shaking. These starter cultures were used to inoculate fresh LB broth or M9 minimal media broth at an OD600 of 0.3. Each well of a 96-well plate was filled with 100 μL of sterile media (LB or M9). A sterile solution of RC-Obi or RO-Obi in LB or M9 media was added to the first well of each row and was serially diluted two-fold down the entire row creating a compound concentration gradient of 0.3-0.0025 mM.
(§2) Each well of the plate was then filled with 100 μL of the OD600 0.3 bacterial cell suspensions to give a final volume of 200 μL per well. The plates were incubated at 37° C. and the OD600 of each well was measured every 30 minutes over 24 hours. The plate was shaken briefly prior to each measurement to ensure an even cell suspension. All growth curves were generated in triplicate.

[2] = test system: 6× passaged E. coli ATCC 25922; experiment: Growth curves of 6× passaged E. coli in the presence of RC-Obi; format: cell-based; conditions: 6 overnight cycles in LB broth with 0.25 mM RC-Obi, then varying concentrations in LB broth
Procedure: (§3) E. coli ATCC 25922 was passaged in LB broth through 6 overnight cycles in the presence of 0.25 mM RC-Obi β-lactone with fresh doses of antibiotic added every 18 hours for 6 days straight.

E. coli X580 = experiment: Growth curves of β-lactam hypersensitive E. coli X580; format: cell-based; conditions: varying concentrations of RC-Obi
Procedure: as §1, §2, §3

E. coli ATCC 25922 [3] = experiment: Fluorescence microscopy of fixed cells stained with DAPI and FM 4-64fx; format: cell-based; conditions: RC-Obi 0.1 mM, RO-Obi 0.5 mM, 2 hours at 37° C.
Procedure: The E. coli cells were also subjected to fluorescence microscopy after treatment with RC-Obi or RO-Obi. E. coli ATCC 29522 cells were grown in LB media for 8 hours at 37° C. then plated on agar media and incubated overnight at 37° C. A single colony was transferred into test tube with fresh LB media and allowed to grow to 0.3 OD600 at 37° C. Cells were diluted by a factor of 10, allowed to grow to OD600 0.3 again. Aliquots of the cell suspension (2 mL each) were treated with RC-Obi (0.1 mM), RO-Obi (0.5 mM), ampicillin (50 μg/mL), or buffer control and incubated for 2 hours at 37° C. Culture aliquots of 250 μL were then used for staining and fluorescence microscopy. Cell membranes and DNA were labeled with the fixable dyes FM 4-64fx and DAPI, respectively, according to the manufacturer's instructions. Cells were fixed with 2.6% paraformaldehyde+0.008% glutaraldehyde as previously described. Fixed cells were imaged on 1% agarose pads with an Olympus BX51 microscope equipped with a CCD OrcaERG camera (Hamamatsu Photonics, Bridgewater, N.J.), an Olympus Plan N 100X/1.25 Oil Ph3 objective, and an X-Cite 120 LED light source (Lumen Dynamics). Nikon elements were used for image capture using the DAPI and rhodamine filter sets from Chroma. Images were processed using NIS—Elements Basic Research Microscope Imaging Software (Nikon Corp.).

[4] = reported; cited from earlier work
Streptococcus pneumonia = conditions: reported; cited from earlier work
[5] = previous studies; cited from earlier work

Row | Compound | effect on E. coli growth (OD600) (E. coli ATCC 25922 [1]) | time until growth recovered to normal levels (E. coli ATCC 25922 [1]; after treatment with RC-Obi) [h] | effect on E. coli growth (OD600) at various concentrations (E. coli ATCC 25922 [1]; various concentrations of RC-Obi, or buffer control) | susceptibility after passaging [2] | sensitivity compared to E. coli ATCC 29522 (E. coli X580) | cell clumping phenotype (E. coli ATCC 25922 [3]) | antibacterial activity [4] | efficacy in murine septicemia model (Streptococcus pneumonia) | hydrolysis in aqueous solutions [5]
1 | O=C(N[C@@H]1C(=O)O[C@@H]1Cc1ccc([N+](=O)[O-])cc1)c1cccc(O)c1O [RC-Obi, obafluorin] | inhibited the growth of E. coli; also recorded: halted E. coli growth | ~10 | inhibited the growth of E. coli in a dose-dependent manner | still susceptible to the antibiotic | enhanced sensitivity and slower growth recovery | induced a cell clumping phenotype; also recorded: severe cell clumping | broad-spectrum antibacterial activity | demonstrated efficacy | hydrolyzes rapidly
2 | O=C(NC(C(=O)O)C(O)Cc1ccc([N+](=O)[O-])cc1)c1cccc(O)c1O (centres unmarked) [RO-Obi] | minimal effect on E. coli growth |  |  |  |  | moderate cell clumping |  |  | 
